Results reported in ChEMBL document CHEMBL1150898, “Synthesis and dopamine receptor selectivity of the benzyltetrahydroisoquinoline, (R)-(+)-nor-roefractine” (J Nat Prod, 1998).

Assays:
D(1A) dopamine receptor = D(1A) dopamine receptor (Rattus norvegicus, UniProt P18901); test: Displacement of [3H]SCH-23390 from rat striatal dopamine D1 receptor
Rattus norvegicus = species on record: Rattus norvegicus; test: Selectivity for rat striatal dopamine D2 receptor over rat striatal dopamine D1 receptor
D(2) dopamine receptor = D(2) dopamine receptor (Rattus norvegicus, UniProt P61169); test: Displacement of [3H]raclopride from rat striatal dopamine D2 receptor
Sequence of D(2) dopamine receptor (P61169 whole entry): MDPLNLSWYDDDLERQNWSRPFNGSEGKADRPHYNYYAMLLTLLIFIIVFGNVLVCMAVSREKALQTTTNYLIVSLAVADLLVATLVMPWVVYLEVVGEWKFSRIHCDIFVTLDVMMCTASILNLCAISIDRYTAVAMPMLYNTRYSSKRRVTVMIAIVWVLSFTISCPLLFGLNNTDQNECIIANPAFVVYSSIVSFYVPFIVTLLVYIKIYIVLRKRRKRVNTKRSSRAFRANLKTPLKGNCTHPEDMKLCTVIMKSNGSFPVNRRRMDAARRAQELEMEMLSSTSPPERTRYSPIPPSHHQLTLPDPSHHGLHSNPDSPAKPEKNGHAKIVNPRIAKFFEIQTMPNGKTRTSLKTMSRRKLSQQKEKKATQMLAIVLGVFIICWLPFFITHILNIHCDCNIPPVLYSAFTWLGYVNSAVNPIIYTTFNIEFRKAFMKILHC

Sequence of D(1A) dopamine receptor (P18901 whole entry): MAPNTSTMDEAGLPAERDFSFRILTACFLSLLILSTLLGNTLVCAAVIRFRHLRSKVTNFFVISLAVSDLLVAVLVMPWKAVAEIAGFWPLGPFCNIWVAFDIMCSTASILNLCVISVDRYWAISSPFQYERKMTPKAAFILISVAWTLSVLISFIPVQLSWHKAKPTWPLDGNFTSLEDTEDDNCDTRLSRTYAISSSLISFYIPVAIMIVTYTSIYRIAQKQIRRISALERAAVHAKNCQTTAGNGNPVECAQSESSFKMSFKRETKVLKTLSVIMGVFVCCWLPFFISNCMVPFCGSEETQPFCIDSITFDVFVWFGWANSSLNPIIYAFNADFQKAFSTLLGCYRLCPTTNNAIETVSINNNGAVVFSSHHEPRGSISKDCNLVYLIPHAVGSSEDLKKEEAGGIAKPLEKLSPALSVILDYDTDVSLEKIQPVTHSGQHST

SMILES | IC50 (D(1A) dopamine receptor) | Selectivity ratio (Rattus norvegicus) | IC50 (D(2) dopamine receptor)
COc1ccc(C[C@H]2NCCc3cc(O)c(OC)cc32)cc1 [NOR-ROEFRACTINE] | 32.9 µM | 6 | 5000 nM
COc1cc2c(cc1O)[C@@H](Cc1ccc(O)cc1)NCC2 | 0.24 µM |  | 130 nM
